According to patent US4663320A, “(2-oxo-1,2,3,5-tetrahydroimidazo[2,1-b]quinoazolinyl)oxyalkylamides, compositions and the use thereof” (Syntex (U.S.A.) Inc., priority 1985, dated 1987):

What was measured:
[1] = test system: Human platelet cyclic AMP phosphodiesterase; test: Cyclic AMP phosphodiesterase assay (human platelet); assay type: biochemical; details: for IC50: human platelet phosphodiesterase, 1 μM cyclic AMP as substrate; for Relative Potency: relative to theophylline (assigned a value of 1) on human platelet phosphodiesterase
Description: (§1) The inhibition of cyclic AMP phosphodiesterase activity by the subject compounds was assayed by the method of Filburn and Karn, Analyt. Biochem., 52:505-516 (1973), using 1 μM cyclic AMP as the substrate. Human platelet cyclic AMP phosphodiesterase was obtained from human donors. Platelets were isolated and washed by centrifugation, the membranes ruptured by a sequential freeze-thaw procedure and hypotonic lysis and the soluble enzyme isolated by high speed centrifugation. The enzyme was stored in aliquots at -20° C.
(§2) This table contains the IC50 values for human platelet phosphodiesterase and IC25 values for rat heart phosphodiesterase.

[2] = test system: rat heart phosphodiesterase; test: Cyclic AMP phosphodiesterase inhibition (rat heart); assay type: biochemical
Description: as §1, §2

[3] = test system: Mongrel dogs; test: Inotropic activity in anesthetized dogs; assay type: in vivo; details: dog
Description: Mongrel dogs were anesthetized intravenously with 35 mg/Kg sodium pentobarbital and supplemented as needed. Blood pressure was measured with a Statham pressure transducer via a cannula inserted from a femoral artery into the abdominal aorta. Heart rate was recorded by a cardiotachometer from a lead II electrocardiogram. Right ventricular contractile force was recorded from a Walton-Brodie strain gauge sutured to the right ventricle following a midsternal thoracotomy. A Harvard respirator was used to ventilate the dogs with room air through an endotracheal tube. The dog was bilaterally vagotomized. Following a midline laparotomy, a cannula was sutured into the duodenum for intraduodenal administration of test compound. A femoral vein was cannulated for administration of isoproterenol. All data were recorded on a Beckman R611 Dynograph.
To assess the responsiveness of each dog, isoproterenol was given intravenously at half-log interval doses from 0.007 to 2.1 or 6.67 μg/Kg. The test compound was then administered intraduodenally, usually at a low dose of 2 mg/Kg and subsequently at higher doses of 6.32 and/or 20 mg/Kg, if necessary. In a few instances, some compounds administered intraduodenally at dose levels from 0.316 to 3.16 mg/Kg.

SMILES	IC50 [1] [nM]	Relative Potency [1]	Rat Heart IC25 [2]	further results
CN(C(=O)CCCOc1ccc2c(c1)CN1CC(=O)NC1=N2)c1ccccc1 [N--methyl-N--phenyl (n = 3, position 7), N-phenyl-N-methyl-4-(2-oxo-1,2,3,5-tetrahydroimidazo[2,1-b]quinazolin-7-yl)oxybutyramide]	26	10,400	350 nM	–
CC(=O)OCCN(C(=O)CCCOc1ccc2c(c1)CN1CC(=O)NC1=N2)C1CCCCC1 [N-cyclohexyl-N-(acetoxyethyl)-4-(2-oxo-1,2,3,5-tetrahydroimidazo[2,1-b]quinazolin-7-yl)oxybutyramide]	1.4	193,000	–	–
O=C1CN2Cc3cc(OCCCC(=O)N(C4CCCCC4)C4CCCCC4)ccc3N=C2N1 [N,N--dicyclohexyl (n = 3, position 7), N,N-dicyclohexyl-4-(2-oxo-1,2,3,5-tetrahydroimidazo[2,1-b]quinazolin-7-yl)oxybutyramide]	1.4	186,000	16 nM	–
CN(C(=O)CCCOc1ccc2c(c1)CN1C(=N2)NC(=O)[C@@H]1CO)C1CCCCC1 [N-cyclohexyl-N-methyl-4-(2-oxo-3-L-hydroxymethyl-1,2,3,5-tetrahydroimidazo[2,1-b]quinazolin-7-yl)oxybutyramide]	27.5	9,800	90 nM	–
CC(C)N(C(=O)CCCOc1ccc2c(c1)CN1CC(=O)NC1=N2)C1CCCCC1 [N-cyclohexyl-N-isopropyl-4-(2-oxo-1,2,3,5-tetrahydroimidazo[2,1-b]quinazolin-7-yl)oxybutyramide]	3.2	84,000	15 nM	–
C[C@H]1C(=O)NC2=Nc3ccc(OCCCC(=O)N(C)C4CCCCC4)cc3CN21 [N-cyclohexyl-N-methyl-4-(2-oxo-3-L-methyl-1,2,3,5-tetrahydroimidazo[2,1-b]quinzolin-7-yl)oxybutyramide]	–	–	–	Blood Pressure, peak effect as % of max. isoproterenol ([3]; i.v., 0.1 mg/kg): 97%; Heart Rate, peak effect as % of max. isoproterenol ([3]; i.v., 0.1 mg/kg): 55%; Rt. Ventricular Contractile Force, peak effect as % of max. isoproterenol ([3]; i.v., 0.1 mg/kg): 32%; Blood Pressure, peak effect as % of max. isoproterenol ([3]; intraduodenal, 0.316 mg/kg): 17%; Heart Rate, peak effect as % of max. isoproterenol ([3]; intraduodenal, 0.316 mg/kg): 11%; Rt. Ventricular Contractile Force, peak effect as % of max. isoproterenol ([3]; intraduodenal, 0.316 mg/kg): 23%; Blood Pressure, peak effect as % of max. isoproterenol ([3]; intraduodenal, 1.0 mg/kg): 54%; Heart Rate, peak effect as % of max. isoproterenol ([3]; intraduodenal, 1.0 mg/kg): 44%; Rt. Ventricular Contractile Force, peak effect as % of max. isoproterenol ([3]; intraduodenal, 1.0 mg/kg): 69%; Blood Pressure, peak effect as % of max. isoproterenol ([3]; intraduodenal, 3.16 mg/kg): 94%; Heart Rate, peak effect as % of max. isoproterenol ([3]; intraduodenal, 3.16 mg/kg): 58%; Rt. Ventricular Contractile Force, peak effect as % of max. isoproterenol ([3]; intraduodenal, 3.16 mg/kg): 55%
O=C1CN2Cc3cc(OCCCC(=O)NC4CCCCC4)ccc3N=C2N1 [N--cyclohexyl (n = 3, position 7), N-cyclohexyl-4-(2-oxo-1,2,3,5-tetrahydroimidazo-[2,1-b]quinazolin-7-yl)oxybutyramide]	72	38,000	180 nM	–
CCN(C(=O)CCCOc1ccc2c(c1)CN1CC(=O)NC1=N2)C1CCCCC1 [N-cyclohexyl-N-ethyl-4-(2-oxo-1,2,3,5-tetrahydroimidazo[2,1-b]quinazolin-7-yl)oxybutyramide]	1.5	180,000	< 10 nM	–
CN(C(=O)CCCOc1cccc2c1N=C1NC(=O)CN1C2)C1CCCCC1 [N-cyclohexyl-N-methyl-4-(2-oxo-1,2,3,5-tetrahydroimidazo[2,1-b]quinazolin-9-yl)oxybutyramide]	> 10000	< 2.7	–	–
CC(C)(C)C(=O)OCCN(C(=O)CCCOc1ccc2c(c1)CN1CC(=O)NC1=N2)C1CCCCC1	1	270,000	–	–
O=C1CN2Cc3cc(OCCCC(=O)N(CCOC(=O)c4ccccc4)C4CCCCC4)ccc3N=C2N1 [N-cyclohexyl-N-(benzoyloxyethyl)-4-(2-oxo-1,2,3,5-tetrahydroimidazo[2,1-b]quinazolin-7-yl)oxybutyramide]	0.94	287,000	–	–
CN(C(=O)COc1ccc2c(c1)CN1CC(=O)NC1=N2)C1CCCCC1 [N-cyclohexyl-N-methyl-2-(2-oxo-1,2,3,5-tetrahydroimidazo[2,1-b]quinazolin-7-yl)oxyacetamide]	820	330	4,400 nM	–
CN(C(=O)CCCCCOc1ccc2c(c1)CN1CC(=O)NC1=N2)C1CCCCC1 [N-cyclohexyl-N-methyl-6-(2-oxo-1,2,3,5-tetrahydroimidazo[2,1-b]quinazolin-7-yl)oxyhexanamide]	12	22,500	21 nM	–
COCCN(C(=O)CCCOc1ccc2c(c1)CN1CC(=O)NC1=N2)C1CCCCC1 [N-cyclohexyl-N-(2-methoxyethyl)-4-(2-oxo-1,2,3,5-tetrahydroimidazo[2,1-b]quinazolin-7-yl)oxybutyramide]	1.3	208,000	< 10 nM	–
O=C1CN2Cc3cc(OCCCC(=O)N4CCCCC4CC(C4CCCCC4)C4CCCCC4)ccc3N=C2N1 (racemic) [perhexylenyl (n = 3, position 7), perhexylenyl-4-(2-oxo-1,2,3,5-tetrahydroimidazo[2,1-b]quinazolin-7-yl)oxybutyramide]	1.8	146,000	36 nM	–
CN(C(=O)CCCOc1cccc2c1CN1CC(=O)NC1=N2)C1CCCCC1 [N-cyclohexyl-N-methyl-4-(2-oxo-1,2,3,5-tetrahydroimidazo[2,1-b]quinazolin-6-yl)oxybutyramide]	2000	135	–	–
CN(C(=O)CCCOc1ccc2c(c1)CN1CC(=O)NC1=N2)C(c1ccccc1)c1ccccc1 [N-diphenylmethyl-N-methyl-4-(2-oxo-1,2,3,5-tetrahydroimidazo[2,1-b]quinazolin-7-yl)oxybutyramide]	15	18,000	60 nM	–
CN(C(=O)CCCCOc1ccc2c(c1)CN1CC(=O)NC1=N2)C1CCCCC1 [N-cyclohexyl-N-methyl-5-(2-oxo-1,2,3,5-tetrahydroimidazo[2,1-b]quinazolin-7-yl)oxypentanamide]	4.6	58,700	22 nM	–
O=C1CN2Cc3cc(OCCCC(=O)N(CCO)C4CCCCC4)ccc3N=C2N1 [N-cyclohexyl-N-(2-hydroxyethyl)-4-(2-oxo-1,2,3,5-tetrahydroimidazo[2,1-b]quinazolin-7-yl)oxybutyramide]	12.5	21,600	70 nM	–
O=C1CN2Cc3cc(OCCCC(=O)N4CCCC5CCCCC54)ccc3N=C2N1 (racemic) [(±)-decahydroquinloninyl-4-(2-oxo-1,2,3,5-tetrahydroimidazo[2,1-b]quinazolin-7-yl)oxybutyramide]	13.5	20,000	200 nM	–
CN(C(=O)CCCOc1ccc2c(c1)CN1C(=N2)NC(=O)[C@H]1CO)C1CCCCC1 [N-cyclohexyl-N-methyl-4-(2-oxo-3-D-hydroxymethyl-1,2,3,5-tetrahydroimidazo[2,1-b]quinazolin-7-yl)oxybutyramide]	18.5	14,600	72 nM	–
CN(C(=O)CCCOc1ccc2c(c1)N=C1NC(=O)CN1C2)C1CCCCC1 [N-cyclohexyl-N-methyl-4-(2-oxo-1,2,3,5-tetrahydroimidazo[2,1-b]quinazolin-8-yl)oxybutyramide]	150	1,800	–	–
O=C1CN2Cc3cc(OCCCC(=O)N(Cc4ccccc4)Cc4ccccc4)ccc3N=C2N1 [N,N--dibenzyl (n = 3, position 7), N,N-dibenzyl-4-(2-oxo-1,2,3,5-tetrahydroimidazo[2,1-b]quinazolin-7-yl)oxybutyramide]	9.2	29,300	60 nM	–
CN(C(=O)CCCCCCOc1ccc2c(c1)CN1CC(=O)NC1=N2)C1CCCCC1 [N-cyclohexyl-N-methyl-7-(2-oxo-1,2,3,5-tetrahydroimidazo[2,1-b]quinazolin-7-yl)oxyheptanamide]	16	16,800	45 nM	–
CC(C)C(=O)OCCN(C(=O)CCCOc1ccc2c(c1)CN1CC(=O)NC1=N2)C1CCCCC1	1.1	245,000	–	–
CN(Cc1ccccc1)C(=O)CCCOc1ccc2c(c1)CN1CC(=O)NC1=N2 [N--methyl-N--benzyl (n = 3, position 7), N-benzyl-N-methyl-4-(2-oxo-1,2,3,5-tetrahydroimidazo[2,1-b]quinazolin-7-yl)oxybutyramide]	26	10,400	240 nM	–
CN(C(=O)CCCOc1ccc2c(c1)CN1CC(=O)NC1=N2)C1CCCCCC1 [N-cycloheptyl-N-methyl-4-(2-oxo-1,2,3,5-tetrahydroimidazo[2,1-b]quinazolin-7-yl)oxybutyramide]	1	270,000	< 10 nM	–
